Molecules are shown by their SMILES. pIC50: −log10 of the molar value.

Assay [1] is described as follows: Resistance factor (IC50 resistant/ parent). The assay is classed as functional.
Assay [2] relates to A2780. In words: Dose of required to inhibit growth of cisplatin resistant human ovarian carcinoma (A2780 cisR) cell line with compound free controls as measured by the sulforhodamine B growth delay assay. The assay is classed as functional, cell-based.
In assay [3] the test system is A2780. In words: Dose of required to inhibit growth of human ovarian carcinoma (A2780) cell line with compound free controls as measured by the sulforhodamine B growth delay assay. It counts as functional, cell-based.

Regarding `COc1cc2c(cc1OCCCOc1cc3c(cc1OC)C(=O)N1CCC[C@H]1C=N3)N=C[C@@H]1CCCN1C2=O`, the RF in assay [1] stood at 29.2.

By pIC50 is commonly meant −log10 of the IC50, conventionally taken in molar units. As for `C=C1C[C@H]2C=Nc3cc(OCCCOc4cc5c(cc4OC)C(=O)N4CC(=C)C[C@H]4C=N5)c(OC)cc3C(=O)N2C1` [SJG-136], the RF in assay [1] was determined as 1. Moreover, the pIC50 in the assay with A2780 [2] was 10.62; in the assay on A2780 [3], 10.65.

In the case of `COC(=O)CC1=CN2C(=O)c3cc(OC)c(OCCCOc4cc5c(cc4OC)C(=O)N4C=C(CC(=O)OC)C[C@H]4C=N5)cc3N=C[C@@H]2C1`, the RF in assay [1] was 10.7. The pIC50 is 7.24 with A2780 [2] and 8.27 in the assay on A2780 [3].
